PubChem BioAssay (NCI)
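Five compound concentrations were applied to cells in 96-well plates for 48 hours; endpoints were derived by simple linear interpolation of the resulting dose-response curve. GI50: concentration for 50% inhibition of growth. TGI is the concentration that stops growth completely.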

Key:
Assay in all cases: inhibition of tumour cell growth, NCI panel, 48 h
SN12C renal = test system: SN12C renal
OVCAR-4 ovarian = test system: OVCAR-4 ovarian
RPMI-8226 leukemia = test system: RPMI-8226 leukemia
SF-268 CNS = test system: SF-268 CNS
IGROV1 ovarian = test system: IGROV1 ovarian
BT-549 breast = test system: BT-549 breast
EKVX NSCLC = test system: EKVX NSCLC
HOP-92 NSCLC = test system: HOP-92 NSCLC
NCI-H460 lung = test system: NCI-H460 lung
RXF 393 renal = test system: RXF 393 renal
SF-539 CNS = test system: SF-539 CNS
HOP-62 NSCLC = test system: HOP-62 NSCLC
SR leukemia = test system: SR leukemia
TK-10 renal = test system: TK-10 renal
UACC-257 melanoma = test system: UACC-257 melanoma
MALME-3M melanoma = test system: MALME-3M melanoma
HCT-15 colon = test system: HCT-15 colon
HCT-116 colon = test system: HCT-116 colon
MDA-MB-231 breast = test system: MDA-MB-231 breast
A549 NSCLC = test system: A549 NSCLC
COLO 205 colon = test system: COLO 205 colon
HS 578T breast = test system: HS 578T breast
KM12 colon = test system: KM12 colon
UO-31 renal = test system: UO-31 renal
OVCAR-3 ovarian = test system: OVCAR-3 ovarian
ACHN renal = test system: ACHN renal
A498 renal = test system: A498 renal
HT29 colon = test system: HT29 colon
LOX IMVI melanoma = test system: LOX IMVI melanoma
DU-145 prostate = test system: DU-145 prostate
T-47D breast = test system: T-47D breast
MCF7 breast = test system: MCF7 breast
NCI-H522 lung = test system: NCI-H522 lung
SK-OV-3 ovarian = test system: SK-OV-3 ovarian
SK-MEL-28 melanoma = test system: SK-MEL-28 melanoma
MOLT-4 leukemia = test system: MOLT-4 leukemia
SK-MEL-2 melanoma = test system: SK-MEL-2 melanoma
NCI/ADR-RES ovarian = test system: NCI/ADR-RES ovarian
OVCAR-8 ovarian = test system: OVCAR-8 ovarian
NCI-H23 lung = test system: NCI-H23 lung
CAKI-1 renal = test system: CAKI-1 renal
HCC-2998 colon = test system: HCC-2998 colon
PC-3 prostate = test system: PC-3 prostate
OVCAR-5 ovarian = test system: OVCAR-5 ovarian
UACC-62 melanoma = test system: UACC-62 melanoma
SNB-75 CNS = test system: SNB-75 CNS
U251 CNS = test system: U251 CNS
SW-620 colon = test system: SW-620 colon
786-0 renal = test system: 786-0 renal
MDA-MB-435 = test system: MDA-MB-435
SF-295 CNS = test system: SF-295 CNS
SK-MEL-5 melanoma = test system: SK-MEL-5 melanoma

Structure (SMILES): COc1ccc(C(=O)OC2C(OC3C(O)COC(O[C@H]4C[C@H]5[C@@H]6CC=C7C[C@@H](O)CC[C@]7(C)[C@H]6CC[C@]5(C)[C@H]4[C@H](C)C(=O)CCC(C)C)C3OC(C)=O)OCC(O)C2O)cc1 (some centres undefined)
- GI50 (SN12C renal): 1.11 µM
- TGI (SN12C renal): 28.3 µM
- GI50 (OVCAR-4 ovarian): 0.00892 µM
- TGI (OVCAR-4 ovarian): 19.6 µM
- GI50 (RPMI-8226 leukemia): < 0.003 µM
- TGI (RPMI-8226 leukemia): < 0.003 µM
- GI50 (SF-268 CNS): < 0.003 µM
- TGI (SF-268 CNS): 1.46 µM
- GI50 (IGROV1 ovarian): < 0.003 µM
- TGI (IGROV1 ovarian): 8.79 µM
- GI50 (BT-549 breast): < 0.003 µM
- TGI (BT-549 breast): 2.18 µM
- GI50 (EKVX NSCLC): < 0.003 µM
- TGI (EKVX NSCLC): 2.4 µM
- GI50 (HOP-92 NSCLC): 0.00636 µM
- TGI (HOP-92 NSCLC): 1.43 µM
- GI50 (NCI-H460 lung): < 0.003 µM
- TGI (NCI-H460 lung): 0.306 µM
- GI50 (RXF 393 renal): < 0.003 µM
- TGI (RXF 393 renal): < 0.003 µM
- GI50 (SF-539 CNS): < 0.003 µM
- TGI (SF-539 CNS): < 0.003 µM
- GI50 (HOP-62 NSCLC): < 0.003 µM
- TGI (HOP-62 NSCLC): 0.592 µM
- GI50 (SR leukemia): < 0.003 µM
- TGI (SR leukemia): 0.682 µM
- GI50 (TK-10 renal): 0.0148 µM
- TGI (TK-10 renal): 6.6 µM
- GI50 (UACC-257 melanoma): < 0.003 µM
- TGI (UACC-257 melanoma): 0.0072 µM
- GI50 (MALME-3M melanoma): < 0.003 µM
- TGI (MALME-3M melanoma): 0.129 µM
- GI50 (HCT-15 colon): 0.023 µM
- TGI (HCT-15 colon): 0.628 µM
- GI50 (HCT-116 colon): < 0.003 µM
- TGI (HCT-116 colon): 3.15 µM
- GI50 (MDA-MB-231 breast): 0.0313 µM
- TGI (MDA-MB-231 breast): 4.55 µM
- GI50 (A549 NSCLC): < 0.003 µM
- TGI (A549 NSCLC): 9.95 µM
- GI50 (COLO 205 colon): < 0.003 µM
- TGI (COLO 205 colon): 0.0194 µM
- GI50 (HS 578T breast): < 0.003 µM
- TGI (HS 578T breast): 0.0215 µM
- GI50 (KM12 colon): 0.00399 µM
- TGI (KM12 colon): 4.48 µM
- GI50 (UO-31 renal): < 0.003 µM
- TGI (UO-31 renal): 0.0056 µM
- GI50 (OVCAR-3 ovarian): 0.0533 µM
- TGI (OVCAR-3 ovarian): 6.88 µM
- GI50 (ACHN renal): 0.00747 µM
- TGI (ACHN renal): 9.22 µM
- GI50 (A498 renal): < 0.003 µM
- TGI (A498 renal): < 0.003 µM
- GI50 (HT29 colon): < 0.003 µM
- TGI (HT29 colon): 5.91 µM
- GI50 (LOX IMVI melanoma): < 0.003 µM
- TGI (LOX IMVI melanoma): 0.00483 µM
- GI50 (DU-145 prostate): < 0.003 µM
- TGI (DU-145 prostate): 24.3 µM
- GI50 (T-47D breast): < 0.003 µM
- TGI (T-47D breast): 1.13 µM
- GI50 (MCF7 breast): < 0.003 µM
- TGI (MCF7 breast): 0.532 µM
- GI50 (NCI-H522 lung): < 0.003 µM
- TGI (NCI-H522 lung): 0.0173 µM
- GI50 (SK-OV-3 ovarian): < 0.003 µM
- TGI (SK-OV-3 ovarian): 0.191 µM
- GI50 (SK-MEL-28 melanoma): < 0.003 µM
- TGI (SK-MEL-28 melanoma): < 0.003 µM
- GI50 (MOLT-4 leukemia): < 0.003 µM
- TGI (MOLT-4 leukemia): < 0.003 µM
- GI50 (SK-MEL-2 melanoma): < 0.003 µM
- TGI (SK-MEL-2 melanoma): 0.0101 µM
- GI50 (NCI/ADR-RES ovarian): 7.49 µM
- TGI (NCI/ADR-RES ovarian): 30 µM
- GI50 (OVCAR-8 ovarian): 1.02 µM
- TGI (OVCAR-8 ovarian): 30 µM
- GI50 (NCI-H23 lung): 0.0144 µM
- TGI (NCI-H23 lung): 3.37 µM
- GI50 (CAKI-1 renal): < 0.003 µM
- TGI (CAKI-1 renal): 0.349 µM
- GI50 (HCC-2998 colon): 0.216 µM
- TGI (HCC-2998 colon): 12.7 µM
- GI50 (PC-3 prostate): < 0.003 µM
- TGI (PC-3 prostate): 0.311 µM
- GI50 (OVCAR-5 ovarian): 0.00601 µM
- TGI (OVCAR-5 ovarian): 1.63 µM
- GI50 (UACC-62 melanoma): < 0.003 µM
- TGI (UACC-62 melanoma): < 0.003 µM
- GI50 (SNB-75 CNS): < 0.003 µM
- TGI (SNB-75 CNS): 4.36 µM
- GI50 (U251 CNS): < 0.003 µM
- TGI (U251 CNS): 3.86 µM
- GI50 (SW-620 colon): < 0.003 µM
- TGI (SW-620 colon): 0.304 µM
- GI50 (786-0 renal): < 0.003 µM
- TGI (786-0 renal): 0.441 µM
- GI50 (MDA-MB-435): < 0.003 µM
- TGI (MDA-MB-435): 0.0435 µM
- GI50 (SF-295 CNS): < 0.003 µM
- TGI (SF-295 CNS): < 0.003 µM
- GI50 (SK-MEL-5 melanoma): < 0.003 µM
- TGI (SK-MEL-5 melanoma): 0.0204 µM
